Key:
[1] = system: CTG-1932, a human non-small cell lung cancer patient-derived cell line; experiment: Subcutaneous xenograft mouse model of patient-derived CTG-1932 non-small cell lung cancer, tumor growth inhibition; format: in vivo; conditions: day 9; paclitaxel 20 mg/kg i.p. once a week, single treatment; significant
Description: For in vivo efficacy studies in a subcutaneous xenograft mouse model of CTG-1932, a human non-small cell lung cancer patient-derived cell line, combination therapy of compound-87 as a PRMT5 inhibitor according to one example of the present invention and with paclitaxel as a chemotherapy agent, was performed at Champions Oncology (USA).
To produce a non-small cell lung cancer xenograft model, CTG-1932 tumor stock was grown and harvested from primary mice and then transplanted subcutaneously into the left flank of immunocompromised female mice as a 5×5×5 mm^3 tumor fragment. When the tumor volume reached approximately 150-300 mm^3, the mice were separated into four groups of 10 each. All group consisted of a solvent-treated group (vehicle group), a compound-87 monotherapy group (50 mg/kg, oral administration, 3 days on/4 days off), a paclitaxel monotherapy group (20 mg/kg, intraperitoneal administration once a week), and combination treatment group of compound-87 (50 mg/kg, oral administration, 3 days on/4 days off) and paclitaxel (20 mg/kg, intraperitoneal administration once a week). tumor volume and body weight were measured twice a week.

[2] = system: symmetric dimethyl arginine (SDMA); experiment: In vivo target inhibition: SDMA ELISA in tumor samples of the Mia PaCa-2 xenograft mouse model; conditions: co-administration with 60 mg/kg gemcitabine
Description: Quantitative reduction levels of symmetric dimethyl arginine (SDMA) in tumor samples harvested from a subcutaneous xenograft mouse model of Mia PaCa-2 were measured by enzyme-linked immunosorbent assay (ELISA).
Reagents: Bradford solution (catalog no. 500-0006) was purchased from Bio-rad (USA). SDMA antibody (catalog no. 13222s) was purchased from Cell signaling Technology (USA). SmD3 antibody (catalog no. ap12451a) was purchased from Abgent (USA). Secondary antibody (catalog no. ab6721) and TMB substrate (catalog no. ab210902) were purchased from Abcam (UK).
Experimental procedure: Tumor tissue transplanted into mice was extracted, cells were lysed, and quantified with Bradford solution. […] of protein per sample was diluted with carbonate-bicarbonate buffer, dispensed into a 96-well plate, and reacted at room temperature for 2 hours. After washing three times with phosphate-buffered saline (PBST) containing 0.05% Tween-20, 200 μL of PBST containing 5% bovine serum albumin (BSA) (BSA-PBST) was added, and reacted at room temperature for 2 hours. After washing three times with PBST, 100 μL of SDMA antibody and SmD3 antibody were diluted in BSA-PBST, each was dispensed, and reacted overnight at 4° C. After washing three times with PBST on next day, 100 μL of secondary antibody diluted in BSA-PBST was added, and reacted at room temperature for 1 hour. After washing three times with PBST, 100 μL of TMB substrate was added and reacted at room temperature for 10-20 minutes, and 100 μL of 1N sulfuric acid solution was added to terminate the reaction. Then, the degree of SDMA inhibition by the compound was calculated by measuring the absorbance at 450 nm.

glioblastoma = glioblastoma chemotherapy; cited from earlier work
[3] = system: human small cell lung cancer cells NCI-H1048; experiment: Subcutaneous xenograft mouse model of NCI-H1048 small cell lung cancer cells, tumor growth inhibition; format: in vivo; conditions: day 23; cisplatin alone, 4 mg/kg intraperitoneally once a week
Description: For in vivo efficacy study in a subcutaneous xenograft mouse model of human small cell lung cancer cells NCI-H1048, co-administration of compound-87 as a PRMT5 inhibitor according to an example of the present invention and cisplatin as an alkylating agent of a chemotherapeutic agent, was performed. To produce a small cell lung cancer xenograft model, 10 million of NCI-H1048 cells were injected subcutaneously into the right flank of female nude mice, and tumor growth was monitored.
To evaluate the anticancer effect, when the tumor volume reached approximately 162 mm^3 on average, the mice were divided into four groups. The all group included a solvent-treated group (Vehicle 1 (Compound-87)+Vehicle 2 (cisplatin) group), a Compound-87 monotherapy group (50 mg/kg), a cisplatin monotherapy group (4 mg/kg), and combination therapy group of Compound-87 and cisplatin. The Compound-87 treatment group was administered orally on a 3-day administration/4-day non-administration schedule, and cisplatin was administered intraperitoneally once a week for 22 days (Day 1-Day 23). All mice were euthanized on Day 22 (Day 23).

[4] = system: cancer cell lines of Table 2 (A549, A549/CR, A549/PR, CAPAN-1, NCI-H1048, MDA-MB-231, Mia PaCa-2, SNU-324, OVCAR3, PA-1, PANC-1, U-87 MG); experiment: Cell viability assay (WST) with combination synergy analysis (Bliss score); format: cell-based, human; conditions: combination with various DNA damage inducers, FIGS. 1 to 25; culture ended on days 7 to 9
Description: Most cell lines were obtained from the American Type Culture Collection (ATCC) or the Korean Cell Line Bank (KCLB). Combination experiments in cisplatin-resistant and paclitaxel-resistant cell lines were performed at the Asan Preclinical Evaluation center for cancer therapeutiX of Asan Medical Center, Seoul. All cell lines were maintained in appropriate growth medium for the cell line in 100-pi dishes oRT75 (75 cm2) flasks, cultured at 37° C. with 5% CO2, and passaged every 3-4 days. Growth medium conditions and cell line information are listed in Table 2, and the cells were counted using Countess (Invitrogen) to obtain the number of viable cells. Mutation and HRD status by cell type are described in Table 3.
The next day, compound-87 was diluted 1/2 to 1/4 to a concentration of 20 μM to 0.002 μM and treated at a set concentration range, and the co-administered drug was diluted 1/2 to 1/3 to a concentration of 100 μM to 0.00046 μM and treated at a 1:1 (v/v) ratio. Finally, the treatment ratio of compound-87 and the co-administered substance was between 1:20000 and 1:0.00015, and in clinical practice, compound-87: drug to be co-administered can be treated at a ratio of 1:10000 to 1:0.0001.
PANC-1 (wild-type BRCA1/BRCA2) pancreatic cancer cells were treated with compound-87 at concentrations of […], and E7016, a PARP inhibitor as a co-administered agent at concentration of 0.078, 0.156, 0.313, 0.625, 1.25, 2.5, 5, or 10 μM (FIG. 25). Cell culture was terminated on days 7 to 9, and cell viability and synergistic effect were evaluated for each combination of concentrations.
Cell viability was measured by a colorimetric assay using water-soluble tetrazolium salt (WST). […]
Results are normalized to DMSO-treated groups as 100% and expressed as the percent of viable cells upon compound addition. […]
The synergy of each compound was analyzed using Combenefit software (Cambridge Research UK, Cambridge Institute, University of Cambridge, United Kingdom), and synergy was evaluated by using Blliss (Ref: Di Veroli et al., 2016, Bioinformatics 32(18):2866-2868). […]

CC(=O)O[C@H]1C(=O)[C@@]2(C)[C@H]([C@H](OC(=O)c3ccccc3)[C@]3(O)C[C@H](OC(=O)[C@H](O)[C@@H](NC(=O)c4ccccc4)c4ccccc4)C(C)=C1C3(C)C)[C@]1(OC(C)=O)CO[C@@H]1C[C@@H]2O [paclitaxel, [(1S,2S,3R,4S,7R,9S,10S,12R,15S)-4,12-diacetyloxy-15-[(2R,3S)-3-benzamido-2-hydroxy-3-phenylpropanoyl]oxy-1,9-dihydroxy-10,14,17,17-tetramethyl-11-oxo-6-oxatetracyclo[11.3.1.03,10.04,7]heptadeca-13-en-2-yl]benzoate, reference compound]
tumor growth inhibition compared to the solvent-treated group [1]: 75%

CC(=O)N1CCC(Oc2ccc3c(c2)OCCN(C[C@H](O)CN2CCc4ccccc4C2)C3=O)CC1 [Compound-78, 8-[(1-acetyl-4-piperidyl)oxy]-4-[(2R)-3-(3,4-dihydro-1H-isoquinolin-2-yl)-2-hydroxy-propyl]-2,3-dihydro-1,4-benzoxazepin-5-one]
SDMA amount in tumor samples compared to the vehicle group ([2]; 25 mg/kg): 33.5%
SDMA amount in tumor samples compared to the vehicle group ([2]; 50 mg/kg): 24.9%
inhibition at 25 mg/kg ([2]; Mus musculus, MIA PaCa-2, 25 mg/kg): 66.5%
inhibition at 50 mg/kg ([2]; Mus musculus, MIA PaCa-2, 50 mg/kg): 75.1%

Cn1nnc2c(C(N)=O)ncn2c1=O [temozolomide, 3-methyl-4-oxoimidazo[5,1-d][1,2,3,5]tetrazine-8-carboxamide]
average survival (glioblastoma): ≤ 14.5 months

N.N.[Cl][Pt][Cl] [cisplatin, azane; dichloroplatinum, reference compound]
tumor growth inhibition rate [3]: 62.9%

CN1CCC(Oc2ccc3c(c2)OC(C)(C)CN(C[C@H](O)CN2CCc4ccccc4C2)C3=O)CC1 [Compound-112, 4-[(2R)-3-(3,4-dihydro-1H-isoquinolin-2-yl)-2-hydroxy-propyl]-2,2-dimethyl-8-[(1-methyl-4-piperidyl)oxy]-3H-1,4-benzoxazepin-5-one]
inhibition of cell viability, combination treatment compared to single agent [4]: enhanced inhibition effects of cell viability

O=C1c2ccc(O[C@@H]3CCN(C4COC4)C3)cc2OCCN1C[C@H](O)CN1CCc2ccccc2C1 [Compound-271, 4-[(2R)-3-(3,4-dihydro-1H-isoquinolin-2-yl)-2-hydroxy-propyl]-8-[(3R)-1-(oxetan-3-yl)pyrrolidin-3-yl]oxy-2,3-dihydro-1,4-benzoxazepin-5-one]
inhibition of cell viability, combination treatment compared to single agent [4]: enhanced inhibition effects of cell viability

Source: patent US20260137700A1, “PHARMACEUTICAL COMBINATION OF PRMT5 INHIBITOR AND DNA DAMAGE-INDUCING SUBSTANCE” (SK Biopharmaceuticals Co., Ltd., priority 2022, published 2026)
